Measurements reported in ChEMBL document CHEMBL3244191, “Study of the structural requirements for dopa potentiation and oxotremorine antagonism by L-prolyl-L-leucylglycinamide” (J Med Chem, 1978).
Active and inactive are the calls of the source. No cut-off for these calls is given here. Square brackets hold non-standard residues; d marks the D form. Peptide text beside a SMILES is read from it. azaGly = NNC(=O)O; βAla = NCCC(=O)O

Columns and labels:
Assay type in all cases: functional, organism-based
[1] = tested on: Mus musculus; assay: Potentiation of dl-DOPA-induced behavioral effects in ICR mouse assessed as moderate piloerection, salivation, marked increased motor activity and irritability at 10 mg/kg, ip administered 1 hr prior to dl-DOPA-challenge measured for 1 hr; set-up: dose 10 mg/kg
[2] = tested on: Mus musculus; assay: Suppression of oxotremorine-induced tremor in ICR mouse at 20 mg/kg, ip pretreated for 1 hr followed by oxotremorine-challenge; set-up: dose 20 mg/kg
[3] = tested on: Mus musculus; assay: Potentiation of dl-DOPA-induced behavioral effects in ICR mouse assessed as slight piloerection, slight salivation and slight increased motor activity at 2.5 mg/kg, ip administered 1 hr prior to dl-DOPA-challenge measured for 1 hr; set-up: dose 2.5 mg/kg
[4] = tested on: Mus musculus; assay: Potentiation of dl-DOPA-induced behavioral effects in ICR mouse assessed as marked piloerection, profuse salivation, marked increased irritability and reactivity, jumping, squeaking and aggressive fighting at 1 mg/kg, ip administered 1 hr prior to dl-DOPA-challenge measured for 1 hr; set-up: dose 1 mg/kg
[5] = tested on: Mus musculus; assay: Suppression of oxotremorine-induced tremor in ICR mouse at 1 mg/kg, ip pretreated for 1 hr followed by oxotremorine-challenge; set-up: dose 1 mg/kg
[6] = tested on: Mus musculus; assay: Suppression of oxotremorine-induced tremor in ICR mouse at 4 mg/kg, ip pretreated for 1 hr followed by oxotremorine-challenge; set-up: dose 4 mg/kg
[7] = tested on: Mus musculus; assay: Potentiation of dl-DOPA-induced behavioral effects in ICR mouse assessed as marked piloerection, profuse salivation, marked increased irritability and reactivity, jumping, squeaking and aggressive fighting at 0.1 mg/kg, ip administered 1 hr prior to dl-DOPA-challenge measured for 1 hr; set-up: dose 0.1 mg/kg
[8] = tested on: Mus musculus; assay: Potentiation of dl-DOPA-induced behavioral effects in ICR mouse assessed as marked piloerection, profuse salivation, marked increased irritability and reactivity, jumping, squeaking and aggressive fighting at 10 mg/kg, ip administered 1 hr prior to dl-DOPA-challenge measured for 1 hr; set-up: dose 10 mg/kg
[9] = tested on: Mus musculus; assay: Potentiation of dl-DOPA-induced behavioral effects in ICR mouse assessed as slight piloerection, slight salivation and slight increased motor activity at 10 mg/kg, ip administered 1 hr prior to dl-DOPA-challenge measured for 1 hr; set-up: dose 10 mg/kg
[10] = tested on: Mus musculus; assay: Suppression of oxotremorine-induced tremor in ICR mouse at 10 mg/kg, ip pretreated for 1 hr followed by oxotremorine-challenge; set-up: dose 10 mg/kg
[11] = tested on: Mus musculus; assay: Potentiation of dl-DOPA-induced behavioral effects in ICR mouse assessed as moderate piloerection, salivation, marked increased motor activity and irritability at 2.5 mg/kg, ip administered 1 hr prior to dl-DOPA-challenge measured for 1 hr; set-up: dose 2.5 mg/kg

Structure (SMILES) | Activity [1] | Activity [2] | Activity [9] | also measured
CC(C)C[C@H](NC(=O)[C@@H]1CCCN1)C(=O)NCC#N | Active | inactive | – | Activity [3]: Active
CC(C)C[C@H](NC(=O)[C@@H]1CCCN1)C(=O)NCC(N)=O (H-Pro-Leu-Gly-NH2) | – | Active | – | Activity [4]: Active; Activity [5]: inactive; Activity [6]: Active; Activity [7]: Active; Activity [8]: Active
CC(C)C[C@H](NC(=O)[C@@H]1CCCN1)C(=O)N1CCSC1C(N)=O (single isomer, unassigned; (-)) | Active | inactive | – | Activity [3]: Active
CC(C)C[C@H](NC(=O)[C@@H]1CCCN1)C(=O)NCCC(N)=O (H-Pro-Leu-[βAla]-NH2) | – | inactive | Active | –
CNC(=O)CNC(=O)[C@H](CC(C)C)NC(=O)[C@@H]1CCCN1 (H-Pro-Leu-Gly-NHMe) | – | inactive | Active | –
CC(C)C[C@H](NC(=O)[C@H]1CSCN1)C(=O)NCC(N)=O | – | inactive | Active | Activity [10]: inactive
CC(=O)CNC(=O)[C@H](CC(C)C)NC(=O)[C@@H]1CCCN1 | Active | inactive | – | Activity [11]: Active
CC(C)C[C@H](NC(=O)[C@@H]1CCCN1)C(=O)N1CCSC1C(N)=O (stereo in doubt; 9) | – | inactive | Active | –
CC(C)C[C@H](NC(=O)[C@@H]1CCCN1)C(=O)N1CCC[C@H]1C(N)=O (H-Pro-Leu-Pro-NH2) | – | Active | Active | Activity [10]: inactive
CC(C)C[C@H](NC(=O)[C@@H]1CCCN1)C(=O)NNC(N)=O (H-Pro-Leu-[azaGly]-NH2) | – | inactive | Active | –
CC(C)C[C@H](NC(=O)C1CCCC1)C(=O)NCC(N)=O | Active | inactive | – | Activity [3]: Active
CC(C)C[C@H](NC(=O)[C@@H]1CCCN1)C(=O)N1CSC[C@@H]1C(N)=O | – | inactive | Active | –
